In brackets after ≈: the same amount, converted by molar mass. Several values for one entry are separate records, joined by “and”; a condition that tells them apart may be missing. Identical values can stand only once. Like-named read-outs stand apart in the source and are kept apart here.
Assays:
RS4(11) = test: Multi cell line growth assay (CellTiter-Glo, 72 h); type: cell-based, human; details: Homo sapiens, RS4-11, Lung (so in the source), ND = no growth inhibition observed
in vitro = details: PAMPA
Description: (§1) For assessment of drug permeability, we relied on parallel artificial membrane permeability assay (PAMPA) performed at Pion Inc. with the PAMPA Evolution™ instrument (Table S1, ESI ^†).
(§2) methods (ESOL model1 and Ali et al.2) PAMPA: Pe is effective permeability (x10-6 cm/sec)
(§3) measured directly from assay at pH 6.8 and %R is membrane retention.
(§4) as the average of quadruplicates. Und label refers to compounds with extremely low solubility
(§5) for which UV limits were below the detection limits therefore considered undetected.
(§6) Compounds were labelled as high permeability (green), medium permeability (orange) or low
(§7) Artificial Membrane Permeability (PAMPA):
(§8) The PAMPA Evolution™ instrument was used to determine permeability, at Pion Inc. In
(§9) PAMPA, a sandwich is formed such that each composite well is divided into two chambers,
(§10) measured at pH 6.8 in the donor compartment using low-binding, low UV Prisma buffer. The
(§11) drug-free acceptor compartment was filled with acceptor sink buffer containing a scavenger at
(§12) the start of the test. The proprietary scavenger mimics serum proteins and blood circulation,
(§13) thus creating sink conditions. Aqueous solutions of studied compounds are prepared by diluting
(§14) and thoroughly mixing 3 µL of DMSO stock in 600 µL of Prisma HT buffer. Final
(§15) concentration of organic solvent (DMSO) in aqueous buffer is ≤ 0.5% (v/v). The reference
(§16) solution is identical to the donor at time zero, so that any surface adsorption effects from the
(§17) plastic ware is compensated. The PAMPA sandwich was assembled and allowed to incubate
(§18) for ~15 hours. The solutions in the donor compartment were un-stirred within duration of the
(§19) experiment. Thus, the thickness of the aqueous boundary layer expected to be about 1000 µm.
(§20) The sandwich was then separated, and both the donor and receiver compartments were assayed
(§21) for the amount of drug present by comparison with the UV spectrum obtained from reference

His6-hsBMX = target: T1, His6-hsBMX (Homo sapiens, UniProt P51813); test: Surface plasmon resonance (SPR); type: binding; details: 1:1 Langmuir fit, 25 °C
T1 construct: Crystallization, data collection, and structure determination of BMX catalytic domain in; made in house; host or cells: Sf-9 insect cells
Description: response upon compound injection (t=0s), or upon washing (t=220s), on immobilized His6-
hsBMX surfaces. Compound concentrations injected on already saturated surfaces were not
included in the 1:1 Langmuir fitting model. X-axis: time (s); y-axis: response (arbitrary units).
Inset plots [x-axis: compound concentration (M); y-axis: response (arbitrary units)] show the
steady-state affinity (KDss) fit for the interactions wherein equilibrium was reached.
Surface Plasmon Resonance:
The kinetic and affinity parameters of protein-compound interaction were evaluated by SPR.
Experiments were carried out in a Biacore 4000 instrument (Biacore AB, GE Healthcare Life
Sciences, Uppsala, Sweden) at 25 °C. His6-BMX protein was diluted to 10 µg/mL in sodium
acetate pH 5.5, in the presence of 5 µM staurosporine and immobilized onto CM5 (Series S)
sensor chips, using the standard amine coupling procedure. Prior to immobilization, the
carboxymethylated surface of the chip was activated with 400 mM 1-ethyl-3-(3-
dimethylaminopropyl)-carbodiimide and 100 mM N-hydroxysuccinimide for 10 min. HBS-N
(10 mM HEPES pH7.4, 150mM NaCl) was used as the background buffer. Protein was coupled
to the surface after 2 to 10 min injection times, at a flow rate of 10 µL/min, in order to reach
1500 to 3500 response units (RU). The remaining activated carboxymethylated groups were
blocked with a 7 min injection of 1 M ethanolamine pH 8.5. Compounds were pre-diluted in
DMSO to 50x the desired highest tested concentration and diluted afterwards in running buffer
(20 mM HEPES pH 7.4, 150 mM NaCl, 1 mM DTT, 0.1 mM EGTA, 0.05 % (v/v) TWEEN-
20, 5 mM MgCl2) in order to reach 2% of DMSO concentration. A DMSO solvent correction
(1% - 3%) was performed to account for variations in bulk signal and to achieve high-quality
data. Each compound was injected over immobilized His6-BMX for 220 s (30 µL min-1;
association phase) followed by 600 to 2000 s of buffer flow (dissociation phase) at a maximum
five times in 2-fold dilution series. All sensorgrams were processed by first subtracting the
binding response recorded from the control surface (reference spot), followed by subtracting
the buffer blank injection from the reaction spot. All datasets were fit to a simple 1:1 Langmuir
interaction model with the provided Biacore 4000 Evaluation software, to determine kinetic rate constants (kon, koff) or steady-state affinity (KDss).

LNCaP cells [1] = test: LNCaP cell growth assay (CellTiter-Glo, 96 h); type: cell-based; details: Homo sapiens, read-out: GI50 LNCaP
Protocol: (§22) GI50 values are reported in μM and are the mean of three individual experiments performed in triplicate. N.d., non-determined, no growth inhibition observed within the concentrations tested.
(§23) Cellular activity Assay: LNCaP and PC-3 Cell Growth Assay
(§24) Cells were seeded in white, opaque-bottom 96-well plates at 5000 cells/well (LNCaP) or 2000 cells/well (PC-3) in a total volume of 100 µL of culture media.
(§25) fold) in 100 µL media were added to the cells 24 hours later. After 96 hours incubation cellular viability was assessed by CellTiter-Glo® (Promega) according to the manufacturer’s instructions. The values were normalized to vehicle and IC50 was calculated using GraphPad

[2] = pH 6.8
Description: as §1, §2, §3, §4, §5, §6, §7, §8, §9, §10, §11, §12, §13, §14, §15, §16, §17, §18, §19, §20, §21

[3] = Dynamic light scattering, colloidal aggregation; type: physicochemical; details: deionized and filtered water (0.1% DMSO), kinetic from dmso stock, measured at 10 µM, 1 µM and 100 nM, 25 °C, read-out: DLS maximum soluble concentration at which no aggregates are observed
LNCaP cells [4] = test: Anti-proliferative co-treatment assays in LNCaP; type: cell-based; details: JS24 3 μM, JS25 5 μM, JS26 6 μM, 5 days; for cell viability reduction: co-treatment with Flutamide (50 μM)
[5] = target: T2, recombinant human BMX protein (hBMX) (Homo sapiens, UniProt P51813); test: Differential scanning fluorimetry (DSF); type: binding; details: for ΔTm at 100 µM: read-out: ΔTm; for Average Tm of BMX with compound: apo-BMX Tm 51.8-52.2 °C
T2 construct: Crystallization, data collection, and structure determination of BMX catalytic domain in; made in house; host or cells: Sf-9 insect cells
Protocol: We further characterized the binding interaction between JS24–JS27 and BMX by using differential scanning fluorimetry (DSF) and surface plasmon resonance (SPR). Purified recombinant human BMX protein (hBMX) was first subjected to thermal scanning in the absence and presence of JS24–JS27, and the respective protein melting temperature (Tm) calculated.
Differential Scanning Fluorimetry:
DSF was performed in MicroAmp™ EnduraPlate™ Optical 96 -Well Clear Reaction Plates
with Barcode (Applied Biosystems, Life Technologies, California, USA) using a QuantStudio
7 Flex Real-Time PCR System (Applied Biosystems). Pre-incubation of the protein with the
compound for 2 hours at 4 °C was required prior to DSF experiments. The final reaction mixture
(20 μL of total volume) contained 4 μg of His6-BMX, 4-fold of Protein Thermal Shift™ Dye
(Applied Biosystems) diluted in protein buffer solution, and 100 μM of compound. The
temperatures were obtained by taking the midpoint of each transition.

BTK = BTK (Homo sapiens, UniProt Q06187); test: BTK biochemical activity assay (radiometric, KinaseProfiler); design: purchased Eurofins DiscoverX KinaseProfiler (contract assay); details: for IC50: duplicate, mean ± S.D., read-out: BTK inhibition IC50
Chain of BTK (Q06187 whole entry, species assumed): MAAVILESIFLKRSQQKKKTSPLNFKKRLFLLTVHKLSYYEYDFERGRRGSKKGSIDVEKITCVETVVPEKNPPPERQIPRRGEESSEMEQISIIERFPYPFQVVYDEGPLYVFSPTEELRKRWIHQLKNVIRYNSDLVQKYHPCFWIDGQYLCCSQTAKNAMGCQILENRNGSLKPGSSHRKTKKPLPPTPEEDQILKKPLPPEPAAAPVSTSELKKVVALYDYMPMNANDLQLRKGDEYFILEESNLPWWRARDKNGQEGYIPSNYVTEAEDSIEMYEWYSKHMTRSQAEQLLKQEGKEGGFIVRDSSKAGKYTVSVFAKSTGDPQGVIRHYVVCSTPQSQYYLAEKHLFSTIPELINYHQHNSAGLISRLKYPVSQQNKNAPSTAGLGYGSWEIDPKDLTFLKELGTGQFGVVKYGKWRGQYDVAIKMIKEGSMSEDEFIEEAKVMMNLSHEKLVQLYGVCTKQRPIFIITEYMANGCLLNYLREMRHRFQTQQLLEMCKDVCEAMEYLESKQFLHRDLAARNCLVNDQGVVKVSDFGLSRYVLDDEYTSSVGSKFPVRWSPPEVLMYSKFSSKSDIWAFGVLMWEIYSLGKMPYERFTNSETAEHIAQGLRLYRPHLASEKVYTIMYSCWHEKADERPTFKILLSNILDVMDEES

Kasumi = test: Multi cell line growth assay (CellTiter-Glo, 72 h); type: cell-based, human; details: Homo sapiens, Blood, ND = no growth inhibition observed
BMX = target: T3, BMX (Homo sapiens, UniProt P51813); test: BMX biochemical activity assay (HTRF, phosphorylation of a biotinylated peptide)
T3 sequence (P51813 1-675): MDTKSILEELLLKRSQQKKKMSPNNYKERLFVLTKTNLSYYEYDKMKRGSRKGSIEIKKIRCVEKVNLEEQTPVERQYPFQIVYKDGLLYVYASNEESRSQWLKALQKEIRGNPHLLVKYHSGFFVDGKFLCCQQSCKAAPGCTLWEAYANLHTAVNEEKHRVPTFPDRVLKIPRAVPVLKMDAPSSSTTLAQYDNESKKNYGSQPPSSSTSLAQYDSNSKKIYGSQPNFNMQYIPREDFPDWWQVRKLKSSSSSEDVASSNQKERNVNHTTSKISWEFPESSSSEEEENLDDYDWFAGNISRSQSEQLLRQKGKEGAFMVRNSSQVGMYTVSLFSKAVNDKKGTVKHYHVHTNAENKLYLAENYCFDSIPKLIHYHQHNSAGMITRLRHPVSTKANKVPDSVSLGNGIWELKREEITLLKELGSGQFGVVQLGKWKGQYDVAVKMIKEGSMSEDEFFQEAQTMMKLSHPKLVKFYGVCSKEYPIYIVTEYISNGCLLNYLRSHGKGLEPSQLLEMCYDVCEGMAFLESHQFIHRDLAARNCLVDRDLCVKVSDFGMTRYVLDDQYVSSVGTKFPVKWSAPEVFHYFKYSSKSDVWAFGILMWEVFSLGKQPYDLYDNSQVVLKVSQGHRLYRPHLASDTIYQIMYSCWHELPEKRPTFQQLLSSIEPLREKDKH

PC3 cells = test: PC-3 cell growth assay (CellTiter-Glo, 96 h); type: cell-based; details: Homo sapiens, read-out: GI50 PC3
Protocol: as §22, §23, §24, §25

LCK = LCK (Homo sapiens, UniProt P06239); test: KINOMEscan binding; details: read-out: % Ctrl LCK
Protocol: (§26) Therefore, we included the whole TEC, EGFR and JAK family in our screening, and the Src family and Lkb1, which also have a cysteine within the same sequence alignment.
(§27) Kinome selectivity was performed with DiscoverX KINOMEscan™ technology.

SRC = SRC (Homo sapiens, UniProt P12931); test: KINOMEscan binding; details: read-out: % Ctrl SRC
Protocol: (§28) Therefore, we included the whole TEC, EGFR and JAK family in our screening, and the Src family and Lkb1, which also have a cysteine within the same sequence alignment. We also included kinases involved in upstream (Src, FAK, PI3K, mTOR, PDK1) and downstream (Akt, PAK1, TAM) regulation of BMX signaling pathway and non-receptor tyrosine protein kinase Abl.
as §27

PTK2 = PTK2 (Homo sapiens, UniProt Q05397); test: KINOMEscan binding; details: read-out: % Ctrl PTK2
Chain of PTK2 (Q05397 whole entry): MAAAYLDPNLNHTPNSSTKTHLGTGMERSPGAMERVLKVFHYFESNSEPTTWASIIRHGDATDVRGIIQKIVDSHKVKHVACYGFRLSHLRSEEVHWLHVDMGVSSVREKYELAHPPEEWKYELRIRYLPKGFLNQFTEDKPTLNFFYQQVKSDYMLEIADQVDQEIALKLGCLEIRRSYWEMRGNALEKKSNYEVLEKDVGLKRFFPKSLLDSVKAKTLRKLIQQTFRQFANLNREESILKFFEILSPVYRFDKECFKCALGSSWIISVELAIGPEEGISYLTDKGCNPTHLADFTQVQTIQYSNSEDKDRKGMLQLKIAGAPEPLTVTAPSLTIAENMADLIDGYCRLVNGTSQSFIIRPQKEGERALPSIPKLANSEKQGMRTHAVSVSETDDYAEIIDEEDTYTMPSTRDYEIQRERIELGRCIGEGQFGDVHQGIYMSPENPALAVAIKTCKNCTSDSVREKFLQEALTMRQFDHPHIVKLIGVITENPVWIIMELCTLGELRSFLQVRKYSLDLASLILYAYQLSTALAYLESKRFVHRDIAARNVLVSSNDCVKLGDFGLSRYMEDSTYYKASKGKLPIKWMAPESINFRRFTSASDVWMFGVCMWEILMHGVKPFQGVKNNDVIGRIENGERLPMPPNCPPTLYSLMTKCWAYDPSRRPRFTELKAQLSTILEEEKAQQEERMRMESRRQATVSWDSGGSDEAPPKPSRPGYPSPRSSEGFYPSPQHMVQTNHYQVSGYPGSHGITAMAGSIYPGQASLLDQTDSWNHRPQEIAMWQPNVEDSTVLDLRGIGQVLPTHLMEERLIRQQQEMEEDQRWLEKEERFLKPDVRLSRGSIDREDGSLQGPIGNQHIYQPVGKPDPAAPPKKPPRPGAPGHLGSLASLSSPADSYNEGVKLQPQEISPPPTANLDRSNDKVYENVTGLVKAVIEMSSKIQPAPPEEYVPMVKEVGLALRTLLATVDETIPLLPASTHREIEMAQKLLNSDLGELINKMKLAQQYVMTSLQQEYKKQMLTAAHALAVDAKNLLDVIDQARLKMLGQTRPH
Protocol: as §28, §27

STK11 = STK11 (Homo sapiens, UniProt Q15831); test: KINOMEscan binding; details: read-out: % Ctrl STK11
Protocol: as §28, §27

AKT3 = AKT3 (Homo sapiens, UniProt Q9Y243); test: KINOMEscan binding; details: read-out: % Ctrl AKT3
Protocol: as §28, §27

PIK3CA = PIK3CA (Homo sapiens, UniProt P42336); test: KINOMEscan binding; details: read-out: % Ctrl PIK3CA
Protocol: as §28, §27

ERBB3 = ERBB3 (Homo sapiens, UniProt P21860); test: KINOMEscan binding; details: read-out: % Ctrl ERBB3
Chain of ERBB3 (P21860 20-1342): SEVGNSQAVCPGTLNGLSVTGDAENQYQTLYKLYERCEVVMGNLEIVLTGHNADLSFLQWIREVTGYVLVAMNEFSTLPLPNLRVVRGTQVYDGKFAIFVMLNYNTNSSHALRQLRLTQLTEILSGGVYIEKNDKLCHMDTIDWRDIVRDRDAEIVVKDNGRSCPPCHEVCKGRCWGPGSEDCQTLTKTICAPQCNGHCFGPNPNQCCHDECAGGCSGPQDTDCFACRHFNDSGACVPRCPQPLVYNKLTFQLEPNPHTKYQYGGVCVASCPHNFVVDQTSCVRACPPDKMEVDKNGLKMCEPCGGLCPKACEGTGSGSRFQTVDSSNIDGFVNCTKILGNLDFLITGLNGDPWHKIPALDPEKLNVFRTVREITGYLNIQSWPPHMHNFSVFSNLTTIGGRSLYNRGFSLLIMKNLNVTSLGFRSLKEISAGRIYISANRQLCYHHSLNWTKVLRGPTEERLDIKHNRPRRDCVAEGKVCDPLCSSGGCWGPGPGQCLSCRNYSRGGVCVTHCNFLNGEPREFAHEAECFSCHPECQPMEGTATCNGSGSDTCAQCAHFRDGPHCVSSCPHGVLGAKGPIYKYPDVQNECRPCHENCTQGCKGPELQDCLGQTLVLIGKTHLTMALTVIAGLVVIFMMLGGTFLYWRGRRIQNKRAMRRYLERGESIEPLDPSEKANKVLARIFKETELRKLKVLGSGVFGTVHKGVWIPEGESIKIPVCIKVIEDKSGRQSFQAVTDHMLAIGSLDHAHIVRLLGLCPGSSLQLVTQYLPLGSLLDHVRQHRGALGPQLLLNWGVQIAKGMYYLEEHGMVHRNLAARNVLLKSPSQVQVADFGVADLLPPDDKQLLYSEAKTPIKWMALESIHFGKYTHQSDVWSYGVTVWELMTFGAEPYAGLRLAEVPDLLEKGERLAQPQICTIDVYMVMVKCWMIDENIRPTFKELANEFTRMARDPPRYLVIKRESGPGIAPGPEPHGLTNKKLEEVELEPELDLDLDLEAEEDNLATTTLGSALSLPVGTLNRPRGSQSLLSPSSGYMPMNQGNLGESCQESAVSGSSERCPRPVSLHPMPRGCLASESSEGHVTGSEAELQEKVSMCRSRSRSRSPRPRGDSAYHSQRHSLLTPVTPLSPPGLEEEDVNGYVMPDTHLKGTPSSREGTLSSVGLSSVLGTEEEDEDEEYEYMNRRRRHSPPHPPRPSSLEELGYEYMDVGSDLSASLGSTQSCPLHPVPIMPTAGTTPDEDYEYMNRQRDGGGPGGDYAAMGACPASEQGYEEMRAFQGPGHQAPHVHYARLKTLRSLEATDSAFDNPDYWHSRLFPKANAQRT
Protocol: as §26, §27

HCK = HCK (Homo sapiens, UniProt P08631); test: KINOMEscan binding; details: read-out: % Ctrl HCK
Protocol: as §26, §27

BLK = BLK (Homo sapiens, UniProt P51451); test: KINOMEscan binding; details: read-out: % Ctrl BLK
Protocol: as §26, §27

AKT1 = AKT1 (Homo sapiens, UniProt P31749); test: KINOMEscan binding; details: read-out: % Ctrl AKT1
Chain of AKT1 (P31749 whole entry): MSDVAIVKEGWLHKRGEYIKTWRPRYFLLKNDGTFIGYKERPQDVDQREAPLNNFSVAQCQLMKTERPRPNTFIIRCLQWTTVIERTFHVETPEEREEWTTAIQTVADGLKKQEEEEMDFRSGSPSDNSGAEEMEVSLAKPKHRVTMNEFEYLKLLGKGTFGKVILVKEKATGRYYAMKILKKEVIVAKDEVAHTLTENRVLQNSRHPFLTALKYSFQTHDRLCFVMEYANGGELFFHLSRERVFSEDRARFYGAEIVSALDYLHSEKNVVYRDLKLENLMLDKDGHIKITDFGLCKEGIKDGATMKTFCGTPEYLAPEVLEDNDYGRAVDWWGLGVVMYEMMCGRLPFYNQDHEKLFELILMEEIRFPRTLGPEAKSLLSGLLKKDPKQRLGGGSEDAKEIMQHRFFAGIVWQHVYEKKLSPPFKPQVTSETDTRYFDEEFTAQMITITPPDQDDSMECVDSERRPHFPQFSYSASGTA
Protocol: as §28, §27

EGFR = EGFR (Homo sapiens, UniProt P00533); test: KINOMEscan binding; details: read-out: % Ctrl EGFR
Chain of EGFR (P00533 25-1210): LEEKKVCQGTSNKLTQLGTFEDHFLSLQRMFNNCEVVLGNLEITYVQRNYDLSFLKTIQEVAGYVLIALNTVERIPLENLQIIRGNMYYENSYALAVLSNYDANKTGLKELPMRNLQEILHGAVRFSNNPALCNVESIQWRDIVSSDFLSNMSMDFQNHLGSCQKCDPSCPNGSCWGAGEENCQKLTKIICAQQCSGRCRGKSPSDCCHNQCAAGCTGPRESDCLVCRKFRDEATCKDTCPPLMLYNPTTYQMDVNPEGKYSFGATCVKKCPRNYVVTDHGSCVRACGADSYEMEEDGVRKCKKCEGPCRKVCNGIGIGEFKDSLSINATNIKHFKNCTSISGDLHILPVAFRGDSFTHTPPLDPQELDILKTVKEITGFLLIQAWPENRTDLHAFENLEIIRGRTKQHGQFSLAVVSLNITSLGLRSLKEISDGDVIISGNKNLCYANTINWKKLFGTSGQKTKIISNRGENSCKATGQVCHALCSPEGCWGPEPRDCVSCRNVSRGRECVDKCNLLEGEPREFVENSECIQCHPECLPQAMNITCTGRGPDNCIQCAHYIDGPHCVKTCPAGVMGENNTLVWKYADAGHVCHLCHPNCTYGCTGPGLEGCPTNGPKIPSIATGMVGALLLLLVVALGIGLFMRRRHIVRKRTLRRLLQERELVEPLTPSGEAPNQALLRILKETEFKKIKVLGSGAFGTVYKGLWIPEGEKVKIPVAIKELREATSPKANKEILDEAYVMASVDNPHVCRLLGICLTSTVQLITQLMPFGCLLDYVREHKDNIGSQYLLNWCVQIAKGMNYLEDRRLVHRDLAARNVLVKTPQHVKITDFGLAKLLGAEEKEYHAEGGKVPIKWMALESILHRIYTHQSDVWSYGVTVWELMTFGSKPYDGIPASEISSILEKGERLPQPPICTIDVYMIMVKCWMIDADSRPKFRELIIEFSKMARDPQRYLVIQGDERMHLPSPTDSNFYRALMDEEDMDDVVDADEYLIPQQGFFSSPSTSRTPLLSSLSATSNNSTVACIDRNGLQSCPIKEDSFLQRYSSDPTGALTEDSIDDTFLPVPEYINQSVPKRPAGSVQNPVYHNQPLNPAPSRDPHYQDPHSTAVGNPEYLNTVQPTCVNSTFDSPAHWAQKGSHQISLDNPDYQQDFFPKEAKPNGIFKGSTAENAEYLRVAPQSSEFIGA
Protocol: as §26, §27

LYN = LYN (Homo sapiens, UniProt P07948); test: KINOMEscan binding; details: read-out: % Ctrl LYN
Protocol: as §28, §27

[6] = target: NanoLuc®-BMX fusion vector in HEK293 cells (Homo sapiens, UniProt P51813); test: NanoBRET TE intracellular kinase assay; type: cell-based; details: HEK293 transiently transfected with BMX; 1 h; duplicate, mean ± S.D.; read-out: intracellular target engagement IC50
Protocol: Target Engagement Intracellular Kinase Assay:
In-cell target engagement was performed at the Reaction Biology Corporation (USA) using the NanoBRETTM technology. Very briefly, HEK296 cells, purchased from ATCC, were
with the reference compound Dasatinib, for 1 hour of incubation. Compounds were diluted 10 times with 3-fold dilution, starting at 1 µM. Curve fits were performed only when % NanoBret
determined using the GraphPad Prism 8 (USA).

[7] = pH 6.8, PAMPA/Pe effective permeability
[8] = co-treatment with LY294002 (3 μM)
[9] = Experiment 4 of Fig. S3 = Fig. 1b, duplicate, mean ± S.D., read-out: BMX inhibition IC50

SMILES: C=CC(=O)Nc1cc(-n2c(=O)ccc3cnc4cc(-c5ccc(NS(C)(=O)=O)cc5)ccc4c32)ccc1C [JS24]
- GI50 (RS4(11)): 2090 nM
- Papp (in vitro; pH 6.8, PAMPA permeability): 6.8 ×10⁻⁶ cm/s
- Papp (in vitro; [7]): 6.8 ± 0.4 ×10⁻⁶ cm/s
- koff (His6-hsBMX): < 0.0001 s⁻¹
- kon (His6-hsBMX): 140000 M⁻¹ s⁻¹
- GI50 (LNCaP cells [1]; 96-well plates, mean of three experiments in triplicate): 1500 nM
- PAMPA/%R membrane retention [2]: 13±1%
- solubility [3]: 1 µM (≈ 0.525 µg/mL)
- decrease in cell viability (LNCaP cells [4]; co-treatment with AKT1/2 (1 μM), relative to control AKT1/2): 48%
- cell viability reduction (LNCaP cells [4]): 44%
- decrease in cell viability (LNCaP cells [4]; [8]): 35%
- ΔTm at 100 µM ([5]; 100 μM compound, versus apo-BMX): 11.34 ± 0.01 °C
- Average Tm of BMX with compound ([5]; 100 μM compound): 63.57±0.01 °C
- BTK potency gain (fold) relative to BMX-IN-1 (BTK): 33 fold
- IC50 (BTK): 11.1 ± 0.8 nM
- LE (BTK) (BTK; ligand efficiency): 0.29
- LipE (BTK) (BTK; lipophilic efficiency): 4.00
- GI50 (Kasumi): 5120 ± 120 nM
- IC50 (BMX; Experiment 2 of Fig. S3, control commercial BMX-IN-1, read-out: BMX IC50): 4.1 ± 0.3 nM
- IC50 (BMX; [9]): 7.5 nM
- LE (BMX) (BMX; ligand efficiency): 0.29
- LipE (BMX) (BMX; lipophilic efficiency): 4.17
- GI50 (PC3 cells; PC-3, 96 h, 96-well plates, N.d. = no growth inhibition observed within the concentrations tested): 11400 ± 4100 nM

SMILES: C=CC(=O)Nc1cc(C)cc(-n2c(=O)ccc3cnc4cc(-c5ccc(NS(C)(=O)=O)cc5)ccc4c32)c1 [JS25]
- Papp (in vitro; pH 6.8, PAMPA permeability): 3.8 ×10⁻⁶ cm/s
- Papp (in vitro; [7]): 3.8 ± 1.6 ×10⁻⁶ cm/s
- GI50 (LNCaP cells [1]): 6600 nM
- remaining binding at 1 µM (LCK): 80%
- PAMPA/%R membrane retention [2]: 10±18%
- solubility [3]: 0.1 µM (≈ 0.0525 µg/mL)
- remaining binding at 1 µM (SRC): 92%
- remaining binding at 1 µM (PTK2): 93%
- remaining binding at 1 µM (STK11): 52%
- remaining binding at 1 µM (AKT3): 99%
- remaining binding at 1 µM (PIK3CA): 79%
- remaining binding at 1 µM (ERBB3): 91%
- cell viability reduction (LNCaP cells [4]): 63%
- decrease in cell viability (LNCaP cells [4]; [8]): 59%
- remaining binding at 1 µM (HCK): 95%
- remaining binding at 1 µM (BLK): 16%
- Average Tm of BMX with compound ([5]; 100 μM compound): 61.43±0.48 °C
- ΔTm at 100 µM [5]: 9.3 ± 0.48 °C
- IC50 (BTK): 5.8 ± 0.04 nM
- remaining binding at 1 µM (AKT1): 100%
- IC50 (BMX; [9]): 3.5 nM
- GI50 (PC3 cells; PC-3, 96 h): 12100 ± 700 nM
- remaining binding at 1 µM (EGFR): 87%
- remaining binding at 1 µM (LYN): 100%
- IC50 [6]: 44.8 nM and 45 nM

— paper PMC8341910, “Structural and biophysical insights into the mode of covalent binding of rationally designed potent BMX inhibitors” (RSC Chemical Biology, 2020)
